Assay results reported in US20180148418A1, “AMIDO-SUBSTITUTED CYCLOHEXANE DERIVATIVES” (Bayer Pharma Aktiengesellschaft, priority 2015, published 2018).

Tests used:
[1] = test system: HEK293 cells cotransfected with the FOP control vector; test: HEK293 FOP assay (control reporter with non-functional TCF elements); assay type: cell-based; details: Homo sapiens, 16 hours
Summary of the method: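 Stable HEK293 line carrying FOP control reporter (randomized non-functional TCF sites, with pcDNA3), Geneticin-selected, plated 24 h before assay. Stimulated with recombinant human Wnt-3a (2500-5 ng/ml) and compounds 50 μM–15 nM (3.16-fold steps) in CAFTY buffer pH 7.4 with 2 mM Ca2+, 0.01% BSA, run parallel to TOP line.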

TNKS2 = biological target: T1, TNKS2 (Homo sapiens, UniProt Q9H2K2); test: TNKS2 Assay B (auto-parsylation, [3H]-NAD+ SPA); assay type: biochemical; details: 6 nM TNKS2, auto-parsylation, over night at room temperature
T1 construct: purchased BPS Bioscience, San Diego, USA 80572 (TNKS2 Histone Ribosylation Assay Kit)
T1 sequence (Q9H2K2 1-1166): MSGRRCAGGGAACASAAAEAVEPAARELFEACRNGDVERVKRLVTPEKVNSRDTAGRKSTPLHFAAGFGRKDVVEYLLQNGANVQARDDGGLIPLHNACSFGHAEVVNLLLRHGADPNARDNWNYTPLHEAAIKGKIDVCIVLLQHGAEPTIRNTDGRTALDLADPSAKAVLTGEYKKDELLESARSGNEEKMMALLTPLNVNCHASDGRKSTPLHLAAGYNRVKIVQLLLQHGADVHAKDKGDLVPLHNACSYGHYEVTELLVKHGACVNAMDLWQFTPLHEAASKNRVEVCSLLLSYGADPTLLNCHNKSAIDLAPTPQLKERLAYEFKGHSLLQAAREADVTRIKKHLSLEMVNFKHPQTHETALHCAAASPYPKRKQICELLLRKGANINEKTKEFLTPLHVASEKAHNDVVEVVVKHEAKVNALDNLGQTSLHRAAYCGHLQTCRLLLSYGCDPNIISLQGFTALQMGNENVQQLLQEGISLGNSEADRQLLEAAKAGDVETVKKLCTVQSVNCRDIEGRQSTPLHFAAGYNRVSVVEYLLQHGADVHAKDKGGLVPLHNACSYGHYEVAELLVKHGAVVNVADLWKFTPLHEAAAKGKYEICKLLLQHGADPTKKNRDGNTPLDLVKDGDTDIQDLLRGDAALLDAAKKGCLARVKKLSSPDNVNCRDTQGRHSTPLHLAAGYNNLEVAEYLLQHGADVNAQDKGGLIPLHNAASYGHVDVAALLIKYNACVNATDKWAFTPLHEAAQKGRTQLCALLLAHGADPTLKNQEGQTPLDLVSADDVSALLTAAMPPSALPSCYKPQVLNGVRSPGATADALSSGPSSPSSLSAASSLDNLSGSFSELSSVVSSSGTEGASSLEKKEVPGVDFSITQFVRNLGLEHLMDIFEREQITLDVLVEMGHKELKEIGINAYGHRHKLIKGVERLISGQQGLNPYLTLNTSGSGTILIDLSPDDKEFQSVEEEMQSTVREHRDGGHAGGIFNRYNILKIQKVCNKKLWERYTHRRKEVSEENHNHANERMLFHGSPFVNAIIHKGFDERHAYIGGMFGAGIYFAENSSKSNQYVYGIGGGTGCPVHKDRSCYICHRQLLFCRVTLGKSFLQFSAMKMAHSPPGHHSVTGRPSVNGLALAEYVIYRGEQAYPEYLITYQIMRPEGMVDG

Row | SMILES | IC50 (TNKS2) [nM] | IC50 [1] [nM]
1 | COC(C)CNC(=O)c1nc[nH]c1C(=O)N[C@H]1CC[C@H](C(=O)Nc2c(F)cc(F)cc2Cl)CC1 (stereo partly drawn) [Example 68, N^5-{trans-4-[(2-chloro-4,6-difluorophenyl)carbamoyl]cyclohexyl}-N^4-(2-methoxypropyl)-1H-imidazole-4,5-dicarboxamide] | 79 | 33000
2 | COCC(C)NC(=O)c1nc[nH]c1C(=O)N[C@H]1CC[C@H](C(=O)Nc2cc(F)c(F)cc2Cl)CC1 (stereo partly drawn) [Example 87, N^5-{trans-4-[(2-chloro-4,5-difluorophenyl)carbamoyl]cyclohexyl}-N^4-(1-methoxypropan-2-yl)-1H-imidazole-4,5-dicarboxamide] | 51 | ≥ 50000
3 | O=C(N[C@H]1CC[C@H](C(=O)Nc2ccc(F)cc2Cl)CC1)c1[nH]cnc1C(=O)N1CCC1 [Example 23, 4-(azetidin-1-ylcarbonyl)-N-{trans-4-[(2-chloro-4-fluorophenyl)carbamoyl]cyclohexyl}-1H-imidazole-5-carboxamide] | 25 | ≥ 50000
4 | CN(C)C1CN(C(=O)c2nc[nH]c2C(=O)N[C@H]2CC[C@H](C(=O)Nc3ccc(F)cc3Cl)CC2)C1 [Example 26, N-{trans-4-[(2-chloro-4-fluorophenyl)carbamoyl]cyclohexyl}-4-{[3-(dimethylamino)azetidin-1-yl]carbonyl}-1H-imidazole-5-carboxamide] | 80 | ≥ 50000
5 | O=C(NCC1CCCO1)c1nc[nH]c1C(=O)N[C@H]1CC[C@H](C(=O)Nc2c(F)cc(F)cc2Cl)CC1 (stereo partly drawn) [Example 69, N^5-{trans-4-[(2-chloro-4,6-difluorophenyl)carbamoyl]cyclohexyl}-N^4-(tetrahydrofuran-2-ylmethyl)-1H-imidazole-4,5-dicarboxamide] | 57 | ≥ 50000
6 | COC(C)(C)CNC(=O)c1nc[nH]c1C(=O)N[C@H]1CC[C@H](C(=O)Nc2cc(N3CCOCC3)ccc2Cl)CC1 [Example 90, N^5-(trans-4-{[2-chloro-5-(morpholin-4-yl)phenyl]carbamoyl}cyclohexyl)-N^4-(2-methoxy-2-methylpropyl)-1H-imidazole-4,5-dicarboxamide] | 2700 | 33000
7 | CNC(=O)c1[nH]cnc1C(=O)NC1CCC(C(=O)Nc2ccc(F)cc2Cl)CC1C (single isomer, unassigned) [Example 41, N^4-{4-[(2-chloro-4-fluorophenyl)carbamoyl]-2-methylcyclohexyl}-N^5-methyl-1H-imidazole-4,5-dicarboxamide] | > 10000 | ≥ 50000
8 | CNC(=O)c1ocnc1C(=O)N[C@H]1CC[C@H](C(=O)Nc2ccc(F)cc2Cl)CC1 [Example 30] | > 10000 | 40000
9 | CNc1ccc2ncc(C(=O)N[C@H]3CC[C@H](C(=O)Nc4ccc(F)cc4Cl)CC3)n2n1 [Example 53, N-{trans-4-[(2-chloro-4-fluorophenyl)carbamoyl]cyclohexyl}-6-(methylamino)imidazo[1,2-b]pyridazine-3-carboxamide] | 47 | ≥ 50000
10 | Nc1nn2cccnc2c1C(=O)N[C@H]1CC[C@H](C(=O)Nc2ccc(F)cc2Cl)CC1 [Example 59, 2-amino-N-{trans-4-[(2-chloro-4-fluorophenyl)carbamoyl]cyclohexyl}pyrazolo[1,5-a]pyrimidine-3-carboxamide] | 500 | ≥ 50000
11 | CNC(=O)c1nc[nH]c1C(=O)N[C@H]1CC[C@H](C(=O)Nc2ccc(F)cc2Cl)CC1 [Example 1, N^5-{trans-4-[(2-chloro-4-fluorophenyl)carbamoyl]cyclohexyl}-N^4-methyl-1H-imidazole-4,5-dicarboxamide] | 72 | ≥ 50000
12 | O=C(NCC1CCCO1)c1nc[nH]c1C(=O)N[C@H]1CC[C@H](C(=O)Nc2ccc(F)cc2Cl)CC1 (stereo partly drawn) [Example 78, N^5-{trans-4-[(2-chloro-4-fluorophenyl)carbamoyl]cyclohexyl}-N^4-(tetrahydrofuran-2-ylmethyl)-1H-imidazole-4,5-dicarboxamide] | 89 | 9700
13 | O=C(N[C@H]1CC[C@H](C(=O)Nc2ccc(F)cc2Cl)CC1)c1[nH]cnc1C(=O)N1CC2(CCS2(=O)=O)C1 [Example 22, N-{trans-4-[(2-chloro-4-fluorophenyl)carbamoyl]cyclohexyl}-4-[(1,1-dioxido-1-thia-6-azaspiro[3.3]hept-6-yl)carbonyl]-1H-imidazole-5-carboxamide] | 5.3 | ≥ 50000

Second part, led by results:

Row | IC50 (TNKS2) [nM] | SMILES | IC50 [1] [nM]
14 | 56 | COC(=O)c1cc(C)nc2c(C(=O)N[C@H]3CC[C@H](C(=O)Nc4c(F)cc(F)cc4Cl)CC3)cnn12 [Example 351, methyl 3-({trans-4-[(2-chloro-4,6-difluorophenyl)carbamoyl]cyclohexyl}carbamoyl)-5-methylpyrazolo[1,5-a]pyrimidine-7-carboxylate] | ≥ 50000
15 | 2200 | Cc1cc(C(C)(C)C)n2ncc(C(=O)N[C@H]3CC[C@H](C(=O)Nc4ccc(F)cc4Cl)CC3)c2n1 [Example 60, 7-tert-butyl-N-{trans-4-[(2-chloro-4-fluorophenyl)carbamoyl]cyclohexyl}-5-methylpyrazolo[1,5-a]pyrimidine-3-carboxamide] | 24000
16 | > 10000 | CNC(=O)c1[nH]cnc1C(=O)NC1CCC(F)(C(=O)Nc2ccc(F)cc2Cl)CC1 (single isomer, unassigned) [Example 366, N^4-{4-[(2-chloro-4-fluorophenyl)carbamoyl]-4-fluorocyclohexyl}-N^5-methyl-1H-imidazole-4,5-dicarboxamide (single isomer)] | ≥ 50000
17 | 80 | Cc1cc(N2CCC[C@]3(CC[C@@H](NC(=O)c4cnc5cccnn45)CC3)C2=O)c(Cl)cc1F [Example 301, N-[(trans)-2-(2-chloro-4-fluoro-5-methylphenyl)-1-oxo-2-azaspiro[5.5]undec-9-yl]imidazo[1,2-b]pyridazine-3-carboxamide] | ≥ 500
18 | 2 | Cc1cc(C)n2ncc(C(=O)N[C@H]3CC[C@@]4(CCN(c5cc(F)c(F)cc5Cl)C4=O)CC3)c2n1 [Example 299, N-[(trans)-2-(2-chloro-4,5-difluorophenyl)-1-oxo-2-azaspiro[4.5]dec-8-yl]-5,7-dimethylpyrazolo[1,5-a]pyrimidine-3-carboxamide] | ≥ 50000
19 | 69 | Cc1cc(C)n2ncc(C(=O)N[C@H]3CC[C@@]4(CCCN(c5cc(C)c(F)cc5Cl)C4=O)CC3)c2n1 [Example 302, N-[(trans)-2-(2-chloro-4-fluoro-5-methylphenyl)-1-oxo-2-azaspiro[5.5]undec-9-yl]-5,7-dimethylpyrazolo[1,5-a]pyrimidine-3-carboxamide] | ≥ 500
20 | 150 | Cc1cc(C)n2ncc(C(=O)N[C@H]3CC[C@H](C(=O)Nc4ccc(F)cc4Cl)CC3)c2n1 [Example 44, N-{trans-4-[(2-chloro-4-fluorophenyl)carbamoyl]cyclohexyl}-5,7-dimethylpyrazolo[1,5-a]pyrimidine-3-carboxamide] | ≥ 50000
21 | 220 | CC(C)(O)CNC(=O)c1nc[nH]c1C(=O)N[C@H]1CC[C@@]2(CCN(c3cccc(Cl)c3)C2=O)CC1 [Example 284, N^5-[(trans)-2-(3-chlorophenyl)-1-oxo-2-azaspiro[4.5]dec-8-yl]-N^4-(2-hydroxy-2-methylpropyl)-1H-imidazole-4,5-dicarboxamide] | 6800
22 | 2.8 | CNC(=O)c1nc[nH]c1C(=O)N[C@H]1CC[C@@]2(CCN(c3cc(C)c(F)cc3Cl)C2=O)CC1 [Example 288, N^5-[(trans)-2-(2-chloro-4-fluoro-5-methylphenyl)-1-oxo-2-azaspiro[4.5]dec-8-yl]-N^4-methyl-1H-imidazole-4,5-dicarboxamide] | 20000
23 | 19 | Cc1nc2c(C(=O)N[C@H]3CC[C@H](C(=O)Nc4c(F)cc(F)cc4Cl)CC3)cnn2c2c1CCC2 [Example 363, N-{trans-4-[(2-chloro-4,6-difluorophenyl)carbamoyl]cyclohexyl}-5-methyl-7,8-dihydro-6H-cyclopenta[e]pyrazolo[1,5-a]pyrimidine-3-carboxamide] | ≥ 50000
